Reference: article PMC4300089, “Structure-Guided Design of Selective Epac1 and Epac2 Agonists” (PLoS Biology, 2015)

What was measured:
Epac2^Δ280,K450E = biological target: T1, Epac2^Δ280,K450E (Mus musculus, UniProt Q9EQZ6, K468E); assay: Epac activation assay, Epac2 K450E mutant; assay type: biochemical
T1 construct: made in house
T1 sequence (Q9EQZ6 281-993 isoform Q9EQZ6-3 K450E): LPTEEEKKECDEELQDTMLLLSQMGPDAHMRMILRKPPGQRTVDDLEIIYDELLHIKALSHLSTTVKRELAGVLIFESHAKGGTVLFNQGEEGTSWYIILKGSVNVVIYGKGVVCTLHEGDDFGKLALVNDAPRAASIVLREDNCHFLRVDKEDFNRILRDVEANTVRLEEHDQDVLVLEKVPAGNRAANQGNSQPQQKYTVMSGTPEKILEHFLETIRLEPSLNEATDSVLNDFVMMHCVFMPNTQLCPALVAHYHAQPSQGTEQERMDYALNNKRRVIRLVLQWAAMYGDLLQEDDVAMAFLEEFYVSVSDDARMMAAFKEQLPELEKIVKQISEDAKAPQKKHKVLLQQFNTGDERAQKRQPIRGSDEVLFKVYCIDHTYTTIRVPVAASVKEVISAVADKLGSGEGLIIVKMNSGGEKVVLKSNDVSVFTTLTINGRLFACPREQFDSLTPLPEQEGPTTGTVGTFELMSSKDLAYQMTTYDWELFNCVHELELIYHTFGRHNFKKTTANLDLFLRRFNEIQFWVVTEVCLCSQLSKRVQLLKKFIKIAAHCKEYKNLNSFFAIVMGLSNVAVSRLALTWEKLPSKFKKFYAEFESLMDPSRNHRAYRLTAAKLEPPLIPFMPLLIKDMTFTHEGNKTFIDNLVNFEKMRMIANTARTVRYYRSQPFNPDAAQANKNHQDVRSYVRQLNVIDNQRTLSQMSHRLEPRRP
Method: Murine Epac2 was used as all previous structural studies were performed with it.
The activity of Epac was determined by a fluorescence assay. […] The fluorescence intensity of Rap1B•mGDP is approximately twice that of free mGDP, and thus, nucleotide exchange can be observed as a decay in fluorescence upon the addition of excess unlabeled GDP.

PKA-Iα = biological target: T2, PKA-Iα (Homo sapiens, UniProt P10644); assay: PKA activity assay (coupled spectrophotometric, Kemptide), PKA-Iα; assay type: biochemical; conditions: for A (PKA activity): PKAIα
T2 construct: made in house
T2 sequence (P10644 whole entry): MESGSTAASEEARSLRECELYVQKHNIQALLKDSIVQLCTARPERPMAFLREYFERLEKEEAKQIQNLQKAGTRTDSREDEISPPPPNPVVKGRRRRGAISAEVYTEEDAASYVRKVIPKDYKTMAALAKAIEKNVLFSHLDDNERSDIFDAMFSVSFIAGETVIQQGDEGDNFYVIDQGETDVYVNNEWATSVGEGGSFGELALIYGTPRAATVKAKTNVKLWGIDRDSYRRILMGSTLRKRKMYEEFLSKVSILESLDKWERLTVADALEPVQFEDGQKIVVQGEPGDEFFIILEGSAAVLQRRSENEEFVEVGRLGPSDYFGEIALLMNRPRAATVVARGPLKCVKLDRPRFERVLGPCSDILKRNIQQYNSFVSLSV
Method: The recombinant human PKA catalytic subunit (Cα1) and the four human PKA regulatory subunits (RIα, RIβ, RIIα, RIIβ) were expressed, purified, and characterized as described. […] PKA holoenzymes were formed by mixing the R- and C-subunit at a molar ratio of 1.2:1 and extensive dialysis against 20 mM MOPS (pH 7.0), 150 mM NaCl, 2.5 mM β-mercaptoethanol, supplemented with 1 mM ATP and 10 mM MgCl2 for PKA-I at 4°C overnight. PKA holoenzymes were used at about 20 nM for the activation assay. The apparent activation constants (Kact) were determined by fitting the concentration-dependent activity to a sigmoid dose-response model.

Epac1 [1] = biological target: T3, Epac1 (Homo sapiens, UniProt O95398); assay: Epac activation assay, Epac1; assay type: biochemical
T3 construct: made in house
T3 sequence (O95398 150-881 isoform O95398-3): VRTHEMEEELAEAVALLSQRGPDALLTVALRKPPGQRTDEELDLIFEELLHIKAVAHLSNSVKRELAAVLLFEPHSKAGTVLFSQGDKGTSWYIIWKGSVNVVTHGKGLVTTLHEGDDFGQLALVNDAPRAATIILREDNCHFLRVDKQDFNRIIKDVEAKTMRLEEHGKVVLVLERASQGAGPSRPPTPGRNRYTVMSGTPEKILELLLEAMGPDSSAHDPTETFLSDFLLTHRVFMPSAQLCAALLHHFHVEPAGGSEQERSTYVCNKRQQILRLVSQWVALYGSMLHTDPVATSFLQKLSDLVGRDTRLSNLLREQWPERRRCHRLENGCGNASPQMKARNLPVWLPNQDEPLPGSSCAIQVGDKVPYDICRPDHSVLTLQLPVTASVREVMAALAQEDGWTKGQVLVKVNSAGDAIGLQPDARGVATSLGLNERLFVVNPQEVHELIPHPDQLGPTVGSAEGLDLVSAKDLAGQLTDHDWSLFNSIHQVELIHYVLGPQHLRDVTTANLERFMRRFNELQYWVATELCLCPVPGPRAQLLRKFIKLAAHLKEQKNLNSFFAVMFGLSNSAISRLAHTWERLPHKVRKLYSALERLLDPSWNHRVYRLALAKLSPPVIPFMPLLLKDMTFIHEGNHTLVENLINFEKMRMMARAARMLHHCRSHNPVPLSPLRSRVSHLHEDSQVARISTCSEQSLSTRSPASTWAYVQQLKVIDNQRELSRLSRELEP

Epac1 [2] = biological target: T3, Epac1; parameters: method as in PMID 12888551; conditions: footnote c, see also ref 13; cited from earlier work

Nc1ncnc2c1ncn2[C@@H]1O[C@@H]2COP(=O)(O)O[C@H]2[C@H]1O [cAMP, reference compound]
kobs (Epac2^Δ280,K450E; 0.01 μM compound): 3.01e-05 s⁻¹
kobs (Epac2^Δ280,K450E; 0.05 μM compound): 4.19e-05 s⁻¹
kobs (Epac2^Δ280,K450E; 0.08 μM compound): 5.14e-05 s⁻¹
kobs (Epac2^Δ280,K450E; 0.1 μM compound): 5.5e-05 s⁻¹
kobs (Epac2^Δ280,K450E; 0.2 μM compound): 8.25e-05 s⁻¹
kobs (Epac2^Δ280,K450E; 0.3 μM compound): 9.73e-05 s⁻¹
kobs (Epac2^Δ280,K450E; 0.4 μM compound): 0.000114 s⁻¹
kobs (Epac2^Δ280,K450E; 0.5 μM compound): 0.000124 s⁻¹
kobs (Epac2^Δ280,K450E; 0.6 μM compound): 0.000146 s⁻¹
kobs (Epac2^Δ280,K450E; 0.7 μM compound): 0.000155 s⁻¹
kobs (Epac2^Δ280,K450E; 0.8 μM compound): 0.000161 s⁻¹
kobs (Epac2^Δ280,K450E; 1 μM compound): 0.00017 s⁻¹
kobs (Epac2^Δ280,K450E; 2 μM compound): 0.000246 s⁻¹
kobs (Epac2^Δ280,K450E; 3 μM compound): 0.000274 s⁻¹
kobs (Epac2^Δ280,K450E; 4 μM compound): 0.000285 s⁻¹
kobs (Epac2^Δ280,K450E; 5 μM compound): 0.000283 s⁻¹
kobs (Epac2^Δ280,K450E; 6 μM compound): 0.000286 s⁻¹
kobs (Epac2^Δ280,K450E; 7 μM compound): 0.000293 s⁻¹
kobs (Epac2^Δ280,K450E; 8 μM compound): 0.000295 s⁻¹
kobs (Epac2^Δ280,K450E; 10 μM compound): 0.000299 s⁻¹
kobs (Epac2^Δ280,K450E; 20 μM compound): 0.000336 s⁻¹
kobs (Epac2^Δ280,K450E; 30 μM compound): 0.000329 s⁻¹
kobs (Epac2^Δ280,K450E; 40 μM compound): 0.000336 s⁻¹
kobs (Epac2^Δ280,K450E; 50 μM compound): 0.000327 s⁻¹
kobs (Epac2^Δ280,K450E; 60 μM compound): 0.000303 s⁻¹
kobs (Epac2^Δ280,K450E; 70 μM compound): 0.000306 s⁻¹
kobs (Epac2^Δ280,K450E; 80 μM compound): 0.000304 s⁻¹
kobs (Epac2^Δ280,K450E; 100 μM compound): 0.000294 s⁻¹
A (PKA activity) (PKA-Iα; concentration 1 μM): 2.37E+01 U/mg
A (PKA activity) (PKA-Iα; concentration 1.00E+01 μM): 2.34E+01 U/mg
A (PKA activity) (PKA-Iα; concentration 1.00E+02 μM): 2.51E+01 U/mg
A (PKA activity) (PKA-Iα; concentration 1.00E-01 μM): 1.43E+01 U/mg
A (PKA activity) (PKA-Iα; concentration 1.00E-02 μM): 4.4268 U/mg
A (PKA activity) (PKA-Iα; concentration 1.00E-03 μM): 1.4399 U/mg
A (PKA activity) (PKA-Iα; concentration 1.00E-05 μM): 2.9393 U/mg
A (PKA activity) (PKA-Iα; concentration 2.50E-01 μM): 1.93E+01 U/mg
A (PKA activity) (PKA-Iα; concentration 2.50E-02 μM): 7.9492 U/mg
A (PKA activity) (PKA-Iα; concentration 5.00E-02 μM): 9.6152 U/mg
kobs (Epac1 [1]; 0.01 μM compound): 1.1e-05 s⁻¹
kobs (Epac1 [1]; 0.05 μM compound): 1.4e-05 s⁻¹
kobs (Epac1 [1]; 0.08 μM compound): 2.5e-05 s⁻¹
kobs (Epac1 [1]; 0.1 μM compound): 2.8e-05 s⁻¹
kobs (Epac1 [1]; 0.3 μM compound): 3e-05 s⁻¹
kobs (Epac1 [1]; 0.5 μM compound): 3.8e-05 s⁻¹
kobs (Epac1 [1]; 0.8 μM compound): 4.7e-05 s⁻¹
kobs (Epac1 [1]; 1 μM compound): 5e-05 s⁻¹
kobs (Epac1 [1]; 2 μM compound): 6.1e-05 s⁻¹
kobs (Epac1 [1]; 3 μM compound): 9.3e-05 s⁻¹
kobs (Epac1 [1]; 4 μM compound): 0.000116 s⁻¹
kobs (Epac1 [1]; 5 μM compound): 0.000161 s⁻¹
kobs (Epac1 [1]; 6 μM compound): 0.000161 s⁻¹
kobs (Epac1 [1]; 7 μM compound): 0.000189 s⁻¹
kobs (Epac1 [1]; 8 μM compound): 0.00021 s⁻¹
kobs (Epac1 [1]; 10 μM compound): 0.000256 s⁻¹
kobs (Epac1 [1]; 20 μM compound): 0.000421 s⁻¹
kobs (Epac1 [1]; 30 μM compound): 0.000589 s⁻¹
kobs (Epac1 [1]; 40 μM compound): 0.000692 s⁻¹
kobs (Epac1 [1]; 50 μM compound): 0.000746 s⁻¹
kobs (Epac1 [1]; 60 μM compound): 0.000796 s⁻¹
kobs (Epac1 [1]; 70 μM compound): 0.000848 s⁻¹
kobs (Epac1 [1]; 80 μM compound): 0.000859 s⁻¹
kobs (Epac1 [1]; 100 μM compound): 0.000937 s⁻¹
kobs (Epac1 [1]; 200 μM compound): 0.00112 s⁻¹
kobs (Epac1 [1]; 400 μM compound): 0.0012 s⁻¹
kobs (Epac1 [1]; 600 μM compound): 0.00116 s⁻¹
kobs (Epac1 [1]; 800 μM compound): 0.00118 s⁻¹
share of cAMP bound protein still in an inactive conformation (Epac1 [1]; Epac1, assuming the most efficient activators shift the equilibrium fully): about 65%

COC1C2OP(=O)(O)OCC2OC1n1c(Sc2ccc(Cl)cc2)nc2c(N)ncnc21 [D-007, 8-pCPT-2′-O-Me-cAMP, reference compound]
AC50 (Epac1 [2]): 1.8 µM
EC50 (PKA-Iα; PKA-Iα, read-out: Kact): 14 µM
A (PKA activity) (PKA-Iα; concentration 1 μM): 3.924 U/mg
A (PKA activity) (PKA-Iα; concentration 1.00E+01 μM): 1.06E+01 U/mg
A (PKA activity) (PKA-Iα; concentration 1.00E+02 μM): 1.58E+01 U/mg
A (PKA activity) (PKA-Iα; concentration 1.00E-01 μM): 3.7714 U/mg
A (PKA activity) (PKA-Iα; concentration 1.00E-03 μM): 3.6515 U/mg
A (PKA activity) (PKA-Iα; concentration 1.00E-05 μM): 2.6923 U/mg
A (PKA activity) (PKA-Iα; concentration 2.50E+01 μM): 1.22E+01 U/mg
A (PKA activity) (PKA-Iα; concentration 2.50E+02 μM): 1.83E+01 U/mg
A (PKA activity) (PKA-Iα; concentration 5.00E+02 μM): 1.79E+01 U/mg
A (PKA activity) (PKA-Iα; concentration […]): 7.9352 U/mg
kobs (Epac1 [1]; 0.01 μM compound): 4.6e-05 s⁻¹
kobs (Epac1 [1]; 0.05 μM compound): 0.000133 s⁻¹
kobs (Epac1 [1]; 0.08 μM compound): 0.000193 s⁻¹
kobs (Epac1 [1]; 0.1 μM compound): 0.000213 s⁻¹
kobs (Epac1 [1]; 0.2 μM compound): 0.000391 s⁻¹
kobs (Epac1 [1]; 0.3 μM compound): 0.000569 s⁻¹
kobs (Epac1 [1]; 0.4 μM compound): 0.000728 s⁻¹
kobs (Epac1 [1]; 0.5 μM compound): 0.000822 s⁻¹
kobs (Epac1 [1]; 0.6 μM compound): 0.000999 s⁻¹
kobs (Epac1 [1]; 0.7 μM compound): 0.00113 s⁻¹
kobs (Epac1 [1]; 0.8 μM compound): 0.00123 s⁻¹
kobs (Epac1 [1]; 1 μM compound): 0.00137 s⁻¹
kobs (Epac1 [1]; 2 μM compound): 0.00219 s⁻¹
kobs (Epac1 [1]; 3 μM compound): 0.00266 s⁻¹
kobs (Epac1 [1]; 4 μM compound): 0.00283 s⁻¹
kobs (Epac1 [1]; 5 μM compound): 0.00293 s⁻¹
kobs (Epac1 [1]; 6 μM compound): 0.00312 s⁻¹
kobs (Epac1 [1]; 7 μM compound): 0.00321 s⁻¹
kobs (Epac1 [1]; 8 μM compound): 0.00328 s⁻¹
kobs (Epac1 [1]; 20 μM compound): 0.00351 s⁻¹
kobs (Epac1 [1]; 30 μM compound): 0.00364 s⁻¹
kobs (Epac1 [1]; 40 μM compound): 0.00378 s⁻¹
kobs (Epac1 [1]; 50 μM compound): 0.00348 s⁻¹
kobs (Epac1 [1]; 60 μM compound): 0.00363 s⁻¹
kobs (Epac1 [1]; 70 μM compound): 0.0036 s⁻¹
kobs (Epac1 [1]; 80 μM compound): 0.00359 s⁻¹
kobs (Epac1 [1]; 100 μM compound): 0.00349 s⁻¹
potency relative to cAMP by activation potential (times more potently than cAMP) (Epac1 [1]; Epac1): 100 times
